Test results taken from patent publication US20100298557A1, “PYRAZOLOPYRIMIDINE COMPOUND” (Taisho Pharmaceutical Co., Ltd, priority 2006, published 2010).

Tests used:
[1] = system: Human mast cell line LAD cells; experiment: Degranulation test using human mast cell line LAD cells; type: cell-based; settings: IgE-sensitized LAD cells, anti-human IgE stimulation, β-hexosaminidase release, read-out: degranulation inhibitory activity IC50
Procedure: Human mast cell line LAD cells were sensitized with human IgE (Cosmo Bio; final concentration 1 μg/ml) overnight. The cells were harvested, and then washed with PBS (Invitrogen) and washed again with Tyrode's buffer solution (Sigma) containing 0.1% BSA (Sigma). The cells were seeded into a 96-well plate at 10^5 cells/well and then the compound (0.1% final concentration DMSO solution) was added, followed by incubation at 37° C. for 15 minutes. Rabbit anti-human IgE (Dako Japan; final concentration 10 μg/ml) or control Ig (Dako Japan; final concentration 10 μg/ml) was added, followed by incubation at 37° C. for 30 minutes. The supernatant was recovered and p-nitrophenyl-2-acetamido-2-deoxy-β-D-glucopyranoside (Sigma; final concentration 4 mM), a substrate of β-hexosaminidase which is an index of degranulation, was added, followed by incubation at 37° C. for 45 minutes. Glycine (Wako; final concentration 0.2 M, pH 10.4) was added and the reaction was terminated. Then, the absorbance at 405 nm was measured.
The inhibition rate (%) was calculated as (anti-IgE antibody degranulation rate—compound-added group degranulation rate)/(anti-IgE antibody degranulation rate—control antibody degranulation rate)×100. The IC50 value was calculated from the inhibition rate at each concentration and used as an index of inhibitory activity.

Abl = target: T1, Abl (Homo sapiens, UniProt P00519); experiment: Abl inhibition test; type: biochemical; settings: Abltide substrate, ATP 6 μM, [γ-33P]ATP, 40 minutes room temperature; read-out: Abl inhibitory activity IC50
T1 construct: purchased Wako Pure Chemical Industries
Procedure: 5 ng/5 μl/well of an Abl (Wako Pure Chemical Industries) solution, 30 μl of an Abltide substrate peptide solution (Wako Pure Chemical Industries; final concentration 5 μM) and 5 μl of a test substance solution were added to a 96-well plate (Corning), followed by incubation at room temperature for 15 minutes. Then, 10 μl of an ATP mixture (ATP: Oriental Yeast, final concentration 6 μM, [γ-33P]ATP: GE Healthcare Biosciences, 0.06 μCi/well, MgAcetate: Cosmo Bio, final concentration 10 mM) was added, followed by incubation at room temperature for 40 minutes. The Abl solution was prepared using a kinase buffer (20 mM MOPS pH 7.0, 1 mM EDTA, 0.1% β-mercaptoethanol, 0.01% Brij-35, 5% glycerol, 1 mg/ml BSA). The substrate peptide solution and the ATP mixture were prepared using 8 mM MOPS pH 7.0 and 0.2 mM
EDTA. The test substance solution was made by dissolving the test substance in DMSO at each concentration. The final concentration of DMSO was 1%. The reaction was terminated by adding 100 μl of a 100 mM phosphoric acid solution as a reaction terminator. Then, the total reaction solution was transferred to a 96-well MultiScreen plate (Millipore) and washed with 200 μl of 100 mM phosphoric acid three times. After drying, 20 μl of MicroScint-O (PerkinElmer) was added and the radioactivity was measured by TopCount (PerkinElmer). After subtracting the radioactivity in the well to which the Abltide substrate peptide was not added from each radioactivity, the ratio of the radioactivity when the test substance was added to the radioactivity when the test substance was not added was determined. The IC50 value was calculated from the inhibition rate at each concentration and used as an index of inhibitory activity.

Syk = target: T2, Syk (Homo sapiens, UniProt P43405); experiment: Syk inhibition test; type: biochemical; settings: poly(L-glu-L-tyr) substrate, ATP 5 μM, [γ-33P]ATP, 30 minutes room temperature; read-out: Syk inhibitory activity IC50
T2 construct: purchased Wako Pure Chemical Industries
Procedure: 10 ng/10 μl/well of a Syk (Wako Pure Chemical Industries) solution, 15 μl of a poly(L-glu-L-tyr) substrate peptide solution (Sigma, final concentration 5 μM), 20 μl of an ATP mixture (ATP: Oriental Yeast, final concentration 5 μM, [γ-33P]ATP: GE Healthcare Biosciences, 0.1 μCi/well) and 5 μl of a test substance solution were added to a 96-well Corning reaction plate, followed by incubation at room temperature for 30 minutes. An assay buffer containing 50 mM Tris pH 7.5, 10 mM MgCl2, 0.1 mM Na3VO4, 1 mM DTT, 0.01% CHAPS and 100 μg/ml BSA was used. The test substance solution was made by dissolving the test substance in DMSO at each concentration. The final concentration of DMSO was 1%. The reaction was terminated by adding 100 μl of a 120 mM phosphoric acid solution as a reaction terminator. Then, the total reaction solution was transferred to MultiScreen (Millipore) and washed with 200 μl of 100 mM phosphoric acid four times.
After drying, 20 μl of MicroScint-O (PerkinElmer) was added and the radioactivity was measured by TopCount (PerkinElmer). The ratio of the radioactivity when the test substance was added to the radioactivity when the test substance was not added was determined. The IC50 value was calculated from the inhibition rate at each concentration and used as an index of inhibitory activity.

T1 sequence (P00519 whole entry, species assumed): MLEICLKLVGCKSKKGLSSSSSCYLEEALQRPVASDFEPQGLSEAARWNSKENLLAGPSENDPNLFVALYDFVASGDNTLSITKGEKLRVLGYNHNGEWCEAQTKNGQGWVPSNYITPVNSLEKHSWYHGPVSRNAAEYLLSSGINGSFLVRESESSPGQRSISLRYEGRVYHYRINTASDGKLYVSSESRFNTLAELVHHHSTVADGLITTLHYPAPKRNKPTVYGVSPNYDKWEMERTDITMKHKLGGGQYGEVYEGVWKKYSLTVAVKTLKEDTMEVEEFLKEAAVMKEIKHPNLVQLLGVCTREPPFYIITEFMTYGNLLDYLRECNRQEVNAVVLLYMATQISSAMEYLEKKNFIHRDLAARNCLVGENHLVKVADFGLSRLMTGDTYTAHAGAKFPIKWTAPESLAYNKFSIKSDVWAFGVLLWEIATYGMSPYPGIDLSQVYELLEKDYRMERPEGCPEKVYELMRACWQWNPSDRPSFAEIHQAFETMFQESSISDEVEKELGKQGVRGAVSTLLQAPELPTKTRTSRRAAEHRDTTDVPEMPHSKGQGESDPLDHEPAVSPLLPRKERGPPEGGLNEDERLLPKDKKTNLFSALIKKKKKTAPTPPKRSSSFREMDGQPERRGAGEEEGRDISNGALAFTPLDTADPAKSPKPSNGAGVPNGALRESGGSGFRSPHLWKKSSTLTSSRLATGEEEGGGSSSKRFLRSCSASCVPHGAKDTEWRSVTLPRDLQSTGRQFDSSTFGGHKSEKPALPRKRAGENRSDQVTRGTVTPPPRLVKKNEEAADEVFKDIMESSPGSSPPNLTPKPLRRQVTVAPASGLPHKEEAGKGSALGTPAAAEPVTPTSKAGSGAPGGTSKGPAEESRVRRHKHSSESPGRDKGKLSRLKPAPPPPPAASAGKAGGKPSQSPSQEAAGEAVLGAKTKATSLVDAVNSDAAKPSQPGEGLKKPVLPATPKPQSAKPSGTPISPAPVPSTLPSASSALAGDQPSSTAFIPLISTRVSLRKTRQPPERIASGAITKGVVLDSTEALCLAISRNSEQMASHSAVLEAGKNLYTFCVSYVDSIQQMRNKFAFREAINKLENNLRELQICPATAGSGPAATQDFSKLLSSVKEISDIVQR

SMILES	IC50 (Abl) [µM]	IC50 (Syk) [µM]	IC50 [1] [µM]
C[S+]([O-])c1n[nH]c2nc(Nc3ccc(N4CCOCC4)cc3)nc(NC3CC3)c12 (stereo not shown) [Compound 4, N^4-Cyclopropyl-3-(methylsulfinyl)-N^6-(4-morpholin-4-ylphenyl)-1H-pyrazolo[3,4-d]pyrimidine-4,6-diamine]	–	–	≤ 0.1
CSc1n[nH]c2nc(Nc3ccc(N4CCOCC4)cc3)nc(NC3CC3)c12 [Compound 13, N^4-Cyclopropyl-3-(methylsulfanyl)-N^6-(4-morpholin-4-ylphenyl)-1H-pyrazolo[3,4-d]pyrimidine-4,6-diamine]	–	–	≤ 0.1
CS(=O)(=O)c1n[nH]c2nc(Nc3ccc4[nH]cnc4c3)nc(NC3CC3)c12 [Compound 21]	≤ 0.05	–	–
Cc1cc(Nc2nc(NC3CC3)c3c(S(C)(=O)=O)n[nH]c3n2)ccc1N1CCOCC1 [Compound 38]	≤ 0.05	–	–
CS(=O)(=O)c1n[nH]c2nc(Nc3ccc(N4CCOCC4)cc3)nc(NCCCC(N)=O)c12 [Compound 60]	≤ 0.05	–	–
CS(=O)(=O)c1n[nH]c2nc(Nc3ccc(N4CCC(=O)CC4)cc3)nc(NC3CC3)c12 [Compound 88]	–	–	≤ 0.1
CSc1n[nH]c2nc(Nc3ccc(N4CCOCC4)cc3)nc(NCCCCN)c12 [Compound 102]	≤ 0.05	≤ 0.2	≤ 0.1
CS(=O)(=O)c1n[nH]c2nc(Nc3ccc(N4CCOCC4)cc3)nc(NC3CCCC3)c12 [Compound 103]	≤ 0.05	–	–
CS(=O)(=O)c1n[nH]c2nc(Nc3ccc(N4CCOCC4)cc3)nc(NCCCCN)c12 [Compound 107]	≤ 0.05	≤ 0.2	≤ 0.1
CCSc1n[nH]c2nc(Nc3ccc(N4CCOCC4)cc3)nc(NC3CC3)c12 [Compound 108]	≤ 0.05	–	–
CSc1n[nH]c2nc(Nc3ccc(N4CCOCC4)cc3)nc(NCCCCCN)c12 [Compound 110]	≤ 0.05	–	–
CCSc1n[nH]c2nc(Nc3ccc(N4CCOCC4)cc3)nc(NCCCCN)c12 [Compound 114]	≤ 0.05	≤ 0.2	–
CNCCCCNc1nc(Nc2ccc(N3CCOCC3)cc2)nc2[nH]nc(SC)c12 [Compound 116]	≤ 0.05	–	–
CN(C)C(=O)C1CCN(c2ccc(Nc3nc(NC4CC4)c4c(S(C)(=O)=O)n[nH]c4n3)cc2)CC1 [Compound 128]	≤ 0.05	≤ 0.2	≤ 0.1
CCN1CCN(c2ccc(Nc3nc(NC4CC4)c4c(S(C)(=O)=O)n[nH]c4n3)cc2)CC1 [Compound 135]	–	≤ 0.2	≤ 0.1
CC(C)N1CCN(c2ccc(Nc3nc(NC4CC4)c4c(S(C)(=O)=O)n[nH]c4n3)cc2)CC1 [Compound 138]	–	≤ 0.2	≤ 0.1
CNC(=O)COc1cccc(Nc2nc(NC3CC3)c3c(S(C)(=O)=O)n[nH]c3n2)c1 [Compound 150]	≤ 0.05	–	–
CNS(=O)(=O)c1ccc(Nc2nc(NC3CC3)c3c(S(C)(=O)=O)n[nH]c3n2)cc1 [Compound 152]	≤ 0.01	–	–
CS(=O)(=O)c1n[nH]c2nc(Nc3ccc(N4CCOCC4)cc3)nc(Nc3ccccc3C(N)=O)c12 [Compound 188]	≤ 0.05	–	–
CSc1n[nH]c2nc(Nc3ccc(N4CCOCC4)cc3)nc(Nc3ccc4nc[nH]c4c3)c12 [Compound 192]	≤ 0.05	–	–
CSc1n[nH]c2nc(Nc3ccc(N4CCOCC4)cc3)nc(NCCc3c[nH]cn3)c12 [Compound 200]	≤ 0.01	–	–
CSc1n[nH]c2nc(Nc3ccc(N4CCOCC4)cc3)nc(Nc3ccc4cn[nH]c4c3)c12 [Compound 206]	≤ 0.05	–	–
CSc1n[nH]c2nc(Nc3ccc(N4CCOCC4)cc3)nc(Nc3ccc4[nH]c(O)nc4c3)c12 [Compound 208]	≤ 0.05	–	–
N[C@H]1CC[C@@H](Nc2nc(Nc3ccc(N4CCOCC4)cc3)nc3[nH]ncc23)CC1 [Compound 216, N^4-(cis-4-Aminocyclohexyl)-N^6-(4-morpholinophenyl)-1H-pyrazolo[3,4-d]pyrimidine-4,6-diamine]	≤ 0.01	–	–
N[C@H]1CC[C@@H](Oc2nc(Nc3ccc(N4CCOCC4)cc3)nc3[nH]ncc23)CC1 [Compound 217, cis-4-(4-Aminocyclohexyloxy)-N-(4-morpholinophenyl)-1H-pyrazolo[3,4-d]pyrimidin-6-amine]	≤ 0.01	–	–
CS(=O)(=O)c1n[nH]c2nc(Nc3ccc(-c4ccc(C(=O)O)cc4)cc3)nc(NC3CC3)c12 [Compound 227]	≤ 0.05	–	–
CC1CN(C(=O)c2ccc(Nc3nc(NC4CC4)c4c(S(C)(=O)=O)n[nH]c4n3)cc2)CC(C)O1 (stereo not shown) [Compound 240]	≤ 0.05	–	–

The next lines start with results.

IC50 (Abl) [µM]	IC50 (Syk) [µM]	SMILES	IC50 [1] [µM]
≤ 0.01	–	CC(C)(C)Nc1nc(Nc2ccc(N3CCOCC3)cc2)nc2[nH]nc(S(C)(=O)=O)c12 [Compound 55]	–
≤ 0.01	≤ 0.2	CS(=O)(=O)c1n[nH]c2nc(Nc3ccc(N4CCNCC4)cc3)nc(NC3CC3)c12 [Compound 74]	≤ 0.1
≤ 0.01	–	CS(=O)(=O)c1n[nH]c2nc(Nc3ccc(N4CCCC(O)C4)cc3)nc(NC3CC3)c12 (stereo not shown) [Compound 78]	–
≤ 0.01	0.02	CSc1n[nH]c2nc(Nc3ccc(N4CCOCC4)cc3)nc(N[C@H]3CC[C@@H](N)CC3)c12 [Compound 112]	0.019
≤ 0.01	≤ 0.2	CCSc1n[nH]c2nc(Nc3ccc(N4CCOCC4)cc3)nc(N[C@H]3CC[C@H](N)CC3)c12 [Compound 115]	–
≤ 0.01	–	CS(=O)(=O)c1n[nH]c2nc(Nc3ccc(N4CCOCC4)cc3)nc(N[C@H]3CC[C@@H](N)CC3)c12 [Compound 117, N^4-(cis-4-Aminocyclohexyl)-3-(methylsulfonyl)-N^6-(4-morpholin-4-ylphenyl)-1H-pyrazolo[3,4-d]pyrimidine-4,6-diamine]	–
≤ 0.01	–	CC(C)Sc1n[nH]c2nc(Nc3ccc(N4CCOCC4)cc3)nc(N[C@H]3CC[C@@H](N)CC3)c12 [Compound 119]	–
≤ 0.01	–	CS(=O)(=O)c1n[nH]c2nc(Nc3ccc(N4CCC(CO)CC4)cc3)nc(NC3CC3)c12 [Compound 126]	–
≤ 0.01	≤ 0.2	CS(=O)(=O)c1n[nH]c2nc(Nc3ccc(N4CCCC(CO)C4)cc3)nc(NC3CC3)c12 (stereo not shown) [Compound 130]	≤ 0.1
≤ 0.01	≤ 0.2	CN1CCN(c2ccc(Nc3nc(NC4CC4)c4c(S(C)(=O)=O)n[nH]c4n3)cc2)CC1 [Compound 131, N^4-Cyclopropyl-N^6-[4-(4-methylpiperazin-1-yl)phenyl]-3-(methylsulfonyl)-1H-pyrazolo[3,4-d]pyrimidine-4,6-diamine]	≤ 0.1
≤ 0.01	–	CS(=O)(=O)c1n[nH]c2nc(Nc3ccc(N4CCCC(C(N)=O)C4)cc3)nc(NC3CC3)c12 (stereo not shown) [Compound 132]	–
≤ 0.01	≤ 0.2	CS(=O)(=O)c1n[nH]c2nc(Nc3ccc(N4CCS(=O)(=O)CC4)cc3)nc(NC3CC3)c12 [Compound 134]	≤ 0.1
≤ 0.01	≤ 0.2	CS(=O)(=O)c1n[nH]c2nc(Nc3ccc(N4CCN(S(C)(=O)=O)CC4)cc3)nc(NC3CC3)c12 [Compound 146]	–
